Measured values reported in US20100331297A1, “MODULATION OF PROTEIN TRAFFICKING” (FOLDRX PHARMACEUTICALS, INC., priority 2007, published 2010).

What was measured:
Type in all cases: cell-based
ypt1^ts cells = experiment: Rescue of growth of ypt1^ts mutant yeast (OD600); conditions: Saccharomyces cerevisiae, read-out: Ypt1-ts MRC (Minimum Rescue Concentration), ypt1^ts cells, 35° C. and 37° C., OD600; multiple results separated by a comma
Description: The activity of the compounds as modulators of protein trafficking may be measured in the assays described herein that evaluate the ability of a compound to rescue an impairment in protein trafficking. For example, the yeast mutant cell line ypt1^ts can be used to identify compounds that rescue cells from the lethal phenotype of a mutant YPT1 allele (see, e.g., Examples and Schmitt et al. (1988) Cell 53:635-47). The activity may be measured, for example, in a whole yeast cell assay using 384-well screening protocol and an optical density measurement.
The yeast mutant cell line ypt1^ts suppresses, in a temperature dependent fashion, the dominant-lethal phenotype of a mutant YPT1 allele (Schmitt et al. (1988) Cell 53:635-47). The yeast mutant cell line ypt1^ts contains an allele of YPT1 that has two point mutations: one that changes an asparagine at position 121 to a isoleucine (N121I) and another that changes an alanine at position 161 to a valine (A161V). The N121I mutation causes dominant lethality by itself, but lethality is suppressed by the second mutation, resulting in a recessive loss of function phenotype at the restrictive temperatures. ypt1^ts cells grow normally at temperatures up to 25° C., but are growth arrested at 37° C. (Id.).
Compounds were screened to assess their ability to restore growth of ypt1^ts cells. The effect of the compounds was measured on ypt1^ts cells cultured at room temperature (permissive temperature), 37° C. (non-permissive temperature), and 35° C. (semi-permissive temperature).
To determine if the test compounds could rescue the ypt1^ts mutant phenotype, ypt1^ts cells were grown overnight in synthetic complete (SC) media supplemented with 2% glucose at room temperature. Log phase cells were diluted into SC 2% glucose media to an OD600 of 0.003. 100 μL of this culture was then aliquoted into each well of 96-well flat bottom microtiter plates. 1 μL of the test compounds dissolved in DMSO (at a concentration range from 5 mM-0.005 mM) or of DMSO alone was added to each well (50 μM-0.05 μM final concentration in 1% DMSO). Plates were mixed by vortexing and incubated at 35° C. and 37° C. Compound rescue of the ypt1^ts temperature sensitive defect was assessed by measuring the OD600 (optical density at 600 nm; cell growth) of the cultures. Plates incubated at 35° C. were measured at 24 and 40 hours incubation time while plates grown at 37° C. were measured after 40 hours of incubation.
Assays monitoring the rescue of ypt1^ts mutants were performed using a vehicle, a positive control (calcium), and the compounds identified in Table II. Results in Table II corresponding to an MRC (Minimum Rescue Concentration) for ypt1^ts of greater than or equal to 50 micromolar are labeled +; of an MRC for ypt1^ts of 10-50 micromolar are labeled ++; and of an MRC for ypt1^ts of less than 10 micromolar are labeled +++. Multiple results for a particular compound are separated by a comma.

ΔF508 CFTR [1] = biological target: T1, ΔF508 CFTR (Homo sapiens, UniProt P13569, DEL508-508); experiment: Corrector activity, YFP halide (iodide) quenching assay in FRT cells expressing ΔF508 CFTR; design: expressed in transfected cells; host or cells: Fischer rat thyroid (FRT) cells; conditions: 24 hours with compound at 37° C., forskolin and genistein
Method in brief: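 FRT cells co-expressing ΔF508 CFTR and halide-sensitive YFP were incubated 24 h at 37° C with compounds, then stimulated 30 min at 37° C in PBS with forskolin and genistein. Endpoint fluorescence after iodide injection was normalized to initial reading; EC50 from 4-parameter fit with bottom constrained to DMSO control.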

ΔF508 CFTR [2] = biological target: T1, ΔF508 CFTR; experiment: Potentiator activity, YFP halide (iodide) quenching assay in FRT cells expressing ΔF508 CFTR, 27° C. pre-incubation; design: expressed in transfected cells; host or cells: Fischer rat thyroid (FRT) cells; conditions: FRT cells ΔF508 CFTR/YFP, 24 hours at 27° C., compound with forskolin 30 min
Method in brief: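 FRT cells stably co-expressing ΔF508 CFTR and halide-sensitive YFP, grown 24 h at 37° C. then 24 h at 27° C. to raise surface CFTR. Compounds in PBS with forskolin, 30 min at 37° C.; iodide injected and YFP quenching (ex 485/em 530 nm) followed. EC50 from normalized endpoint fluorescence.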

ΔF508 CFTR [3] = biological target: T1, ΔF508 CFTR; experiment: Stabilization of ΔF508 CFTR in CFBE cells (western blot, densitometry); conditions: 16 hours at 37° C., 1.25-10 μM (compound 25), 1-10 μM (compound 5)
Description: In addition, efficacy of a compound can be evaluated before (first in time), concomitantly or subsequently to the above-mentioned test modalities by monitoring, e.g., (i) modulation (e.g., an improvement) of the stability of a trafficking defective protein, (ii) modulation (e.g., an improvement) of proper, physiological trafficking of the trafficking defective protein, or (iii) modulation (e.g., a restoration) in one or more functions of a trafficking defective protein. For example, in some cases, proteins (e.g., protein mutants such as ΔF508 CFTR) are prematurely degraded. Thus, the efficacy of a given compound to modulate protein trafficking can be determined by monitoring the stability of a protein in the presence as compared to the absence of the compound. For example, cells expressing a trafficking defective protein (e.g., expressing endogenously or expressing an exogenous transgene encoding a trafficking defective protein such as ΔF508 CFTR) can be cultured in the presence or absence of a compound for at least 1 hour (e.g., at least 2 hours, at least 4 hours, at least 6 hours, at least 8 hours, at least 12 hours, at least 16 hours, at least 24 hours, at least 36 hours, or at least 48 hours). Cell lysates can be prepared from the different populations of cells, suspended in Laemmli buffer (with or without reducing agent) and subjected to sodium dodecyl sulfate-polyacrylamide gel electrophoresis (SDS-PAGE). Using antibodies that specifically recognize the trafficking defective protein (e.g., CFTR), the amount of the protein in the presence as compared to in the absence of a compound can be determined by western or dot-blotting techniques. […] Where a modified state (e.g., glycosylation or phosphorylation) of a protein is indicative of increased stability, a change in the modified state of a protein can also be used to determine if a compound stabilizes the trafficking defective protein. For example, the amount of glycosylated CFTR (e.g., ΔF508 CFTR) can be assessed in the presence as compared to the absence of a compound.
The compounds can be tested for their ability to stabilize ΔF508 CTFR. CFBE cells, a cell line generated by transformation of cystic fibrosis tracheo-bronchial cells (ΔF508 CTFR homozygous) with SV40 (Bruscia et al. (2002) Gene Ther. 9(11):683-685), can be cultured with 10 μM of the selected compounds, or 10 μM VRT-325 for 16 hours at 37° C. (VRT-325 is described in, e.g., Van Goor et al. (2006) Am. J. Physiol. Lung Cell Mol. Physiol. 290:L1117-L1130). A population of cells can also be cultured with the dimethyl sulfoxide (DMSO) solvent as a control.
Following incubation, cells were lysed, solubilized in Laemmli buffer, and subjected to SDS-PAGE. CFTR protein were visualized by western blotting using an antibody specific for CFTR. Culturing CFBE cells with compound 25 (see Table I for structure) increased the amount of cellular ΔF508 CFTR protein.
The effect of different concentrations of compound 25 on ΔF508 CFTR was tested in a dose response experiment. […] The relative amounts of glysosylated and unglycosylated ΔF508 CFTR protein were visualized by western blotting (FIG. 10A), and the band intensities wer quantitated by scanning and densitometry (FIG. 10B). […] The relative amounts of glysosylated and unglycosylated ΔF508 CFTR protein were visualized by western blotting (FIG. 11A), and the band intensities wer quantitated by scanning and densitometry (FIG. 11B).

[4] = FRT cells ΔF508 CFTR/YFP, read-out: Corrector EC50

T1 sequence (P13569 with tags, fused parts or gaps DEL508-508): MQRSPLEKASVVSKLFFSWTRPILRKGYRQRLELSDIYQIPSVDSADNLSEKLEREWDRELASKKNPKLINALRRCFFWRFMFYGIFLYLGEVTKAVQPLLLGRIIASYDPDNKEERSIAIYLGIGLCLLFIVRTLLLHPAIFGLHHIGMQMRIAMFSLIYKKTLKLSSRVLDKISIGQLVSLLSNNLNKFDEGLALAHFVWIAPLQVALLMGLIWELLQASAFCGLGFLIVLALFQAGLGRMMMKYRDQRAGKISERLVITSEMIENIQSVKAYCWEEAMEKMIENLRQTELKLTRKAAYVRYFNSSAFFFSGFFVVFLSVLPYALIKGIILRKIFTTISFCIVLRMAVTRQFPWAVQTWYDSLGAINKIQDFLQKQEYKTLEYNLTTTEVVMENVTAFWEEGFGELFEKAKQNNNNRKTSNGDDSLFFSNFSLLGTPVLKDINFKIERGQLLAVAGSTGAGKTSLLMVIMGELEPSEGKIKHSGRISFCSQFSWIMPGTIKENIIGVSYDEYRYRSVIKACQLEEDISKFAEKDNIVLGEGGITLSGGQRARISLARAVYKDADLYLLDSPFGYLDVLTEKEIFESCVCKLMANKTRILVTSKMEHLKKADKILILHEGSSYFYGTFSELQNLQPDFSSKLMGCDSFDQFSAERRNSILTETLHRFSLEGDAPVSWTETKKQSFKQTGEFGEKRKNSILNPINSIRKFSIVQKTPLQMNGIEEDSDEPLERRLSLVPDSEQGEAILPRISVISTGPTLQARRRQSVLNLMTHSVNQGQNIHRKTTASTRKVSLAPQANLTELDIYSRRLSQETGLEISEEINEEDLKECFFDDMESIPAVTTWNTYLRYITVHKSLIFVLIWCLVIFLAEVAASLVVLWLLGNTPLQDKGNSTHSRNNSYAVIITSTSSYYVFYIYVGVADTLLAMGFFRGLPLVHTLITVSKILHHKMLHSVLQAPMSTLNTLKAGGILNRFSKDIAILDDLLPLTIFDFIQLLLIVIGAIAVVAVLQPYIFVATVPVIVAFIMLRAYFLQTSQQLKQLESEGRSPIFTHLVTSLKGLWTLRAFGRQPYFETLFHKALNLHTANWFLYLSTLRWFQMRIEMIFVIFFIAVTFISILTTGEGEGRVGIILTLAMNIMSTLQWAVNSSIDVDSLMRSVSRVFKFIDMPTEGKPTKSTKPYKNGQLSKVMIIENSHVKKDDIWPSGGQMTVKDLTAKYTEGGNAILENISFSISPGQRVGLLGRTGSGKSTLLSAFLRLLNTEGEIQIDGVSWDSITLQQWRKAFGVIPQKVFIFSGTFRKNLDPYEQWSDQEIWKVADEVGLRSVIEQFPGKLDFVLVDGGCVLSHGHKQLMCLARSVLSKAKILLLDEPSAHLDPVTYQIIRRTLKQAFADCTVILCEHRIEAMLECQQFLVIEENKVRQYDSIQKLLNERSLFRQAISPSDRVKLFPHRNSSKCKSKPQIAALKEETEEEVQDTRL

| Compound | minimal effective concentration (ypt1^ts cells) | EC50 (ΔF508 CFTR [1]; [4]) | EC50 (ΔF508 CFTR [2]) | glycosylated (Band B) ΔF508 CFTR protein vs absence of compound, dose response (ΔF508 CFTR [3]) | EC50 (ΔF508 CFTR [1]; Corrector EC50, FRT cells ΔF508 CFTR/YFP) |
| --- | --- | --- | --- | --- | --- |
| CCn1cc(-c2ccc(C)cc2)c2c(N)cccc21 [compound 43, 1-Ethyl-3-p-tolyl-1H-indol-4-ylamine] | > 50 µM | > 15 µM | > 15 µM | – | – |
| CCn1nc2cccc(N)c2c1-c1ccc(C)cc1 [compound 80] | > 50 µM | > 15 µM | > 15 µM | – | – |
| CCn1nc(-c2ccc(Cl)cc2)c2c(N)ncnc21 [compound 31] | < 10 µM | 5 to 10 µM | > 15 µM | – | – |
| CC(C)(C)n1nc(-c2cccc(Cl)c2)c2c(N)ncnc21 [compound 10] | > 50 µM | > 15 µM | < 2 µM | – | – |
| Nc1ncnc2c1c(-c1ccc(Cl)cc1)nn2C1CCC1 [compound 33] | 10 to 50 µM | 5 to 10 µM | < 2 µM | – | – |
| COC(=O)c1cnc2c(c(-c3ccc(C)cc3)nn2C(C)(C)C)c1N [compound 46] | > 50 µM | > 15 µM | > 15 µM | – | – |
| CC(=O)Nc1ncnc2c1c(-c1ccc(Cl)cc1)nn2C(C)(C)C [Compound No. 2, N-[1-tert-Butyl-3-(4-chloro-phenyl)-1H-pyrazolo[3,4-d]pyrimidin-4-yl]-acetamide] | > 50 µM | 5 to 10 µM | < 2 µM | – | – |
| CCn1nc(-c2ccc(C)cc2)c2c(N)cccc21 [compound 44, 1-Ethyl-3-p-tolyl-1H-indazol-4-ylamine] | > 50 µM | > 15 µM | > 15 µM | – | – |
| CC(C)(C)n1nc(Cc2cccc3ccccc23)c2c(N)ncnc21 [compound 5] | < 10 µM | > 15 µM | – | increased | – |
| CC(C)(C)n1nc(-c2cc3ccccc3s2)c2c(N)ncnc21 [compound 16, 3-Benzo[b]thiophen-2-yl-1-tert-butyl-1H-pyrazolo[3,4-d]pyrimidin-4-ylamine] | > 50 µM | > 15 µM | – | – | – |
| C#CCn1nc(-c2ccc(Cl)cc2)c2c(N)ncnc21 [compound 30] | > 50 µM | > 15 µM | – | – | – |
| CC(C)(C)n1nc(-c2ccc(F)cc2)c2c(NC(=O)c3ccccc3)ncnc21 [compound 40, N-[1-tert-Butyl-3-(4-fluoro-phenyl)-1H-pyrazolo[3,4-d]pyrimidin-4-yl]-benzamide] | > 50 µM | > 15 µM | – | – | – |
| CCn1cc(-c2ccc(C)cc2)c2c(N)ncnc21 [compound 86] | 10 to 50 µM | 2 to 5 µM | 5 to 10 µM | – | – |
| CNC(=O)c1cnc2c(c(-c3ccc(C)cc3)nn2C(C)(C)C)c1N [compound 47] | > 50 µM | > 15 µM | > 15 µM | – | – |
| Cc1ccc(-c2nn(C(C)(C)C)c3ncnc(N)c23)cc1 [compound 24] | 10 to 50 µM | – | – | – | 2 to 5 µM |
| Nc1ncnc2c1c(-c1ccc(Cl)cc1)nn2-c1ccccc1 [compound 4] | > 50 µM | > 15 µM | – | – | – |
| Nc1ncnc2c1c(Cc1cccc3ccccc13)nn2C1CCCC1 [compound 77] | < 10 µM | > 15 µM | – | – | – |
| Nc1ncnc2c1c(-c1ccc(Cl)cc1)nn2CC1CC1 [compound 29, 3-(4-Chloro-phenyl)-1-cyclopropylmethyl-1H-pyrazolo[3,4-d]pyrimidin-4-ylamine] | < 10 µM | 5 to 10 µM | – | – | – |
| CC(C)n1nc(-c2ccc(Cl)cc2)c2c(N)ncnc21 [compound 27] | 10 to 50 µM | 2 to 5 µM | – | – | – |
| Nc1ncnc2c1c(-c1ccc(Cl)cc1)nn2C1CCCCC1 [compound 3] | > 50 µM | > 15 µM | – | – | – |
| Cc1cc(-c2nn(C(C)(C)C)c3ncnc(N)c23)ccc1F [compound 41] | > 50 µM | > 15 µM | – | – | – |
| Nc1ncnc2c1c(-c1ccc(Cl)cc1)nn2C1CCCC1 [compound 34] | 10 to 50 µM | – | < 2 µM | – | – |
